Test results: US20240398784A1, “C-LINKED ISOQUINOLINE AMIDES AS LRRK2 INHIBITORS, PHARMACEUTICAL COMPOSITIONS, AND USES THEREOF” (Merck Sharp & Dohme LLC, priority 2021, published 2024)

What follows are compounds tested against LRRK2 G2019S (Homo sapiens, UniProt Q5S007, G2019S) (assay: LRRK2 G2019S Km ATP LanthaScreen assay). Settings: not given.
Type: biochemical

Sequence of LRRK2 G2019S (Q5S007 whole entry G2019S): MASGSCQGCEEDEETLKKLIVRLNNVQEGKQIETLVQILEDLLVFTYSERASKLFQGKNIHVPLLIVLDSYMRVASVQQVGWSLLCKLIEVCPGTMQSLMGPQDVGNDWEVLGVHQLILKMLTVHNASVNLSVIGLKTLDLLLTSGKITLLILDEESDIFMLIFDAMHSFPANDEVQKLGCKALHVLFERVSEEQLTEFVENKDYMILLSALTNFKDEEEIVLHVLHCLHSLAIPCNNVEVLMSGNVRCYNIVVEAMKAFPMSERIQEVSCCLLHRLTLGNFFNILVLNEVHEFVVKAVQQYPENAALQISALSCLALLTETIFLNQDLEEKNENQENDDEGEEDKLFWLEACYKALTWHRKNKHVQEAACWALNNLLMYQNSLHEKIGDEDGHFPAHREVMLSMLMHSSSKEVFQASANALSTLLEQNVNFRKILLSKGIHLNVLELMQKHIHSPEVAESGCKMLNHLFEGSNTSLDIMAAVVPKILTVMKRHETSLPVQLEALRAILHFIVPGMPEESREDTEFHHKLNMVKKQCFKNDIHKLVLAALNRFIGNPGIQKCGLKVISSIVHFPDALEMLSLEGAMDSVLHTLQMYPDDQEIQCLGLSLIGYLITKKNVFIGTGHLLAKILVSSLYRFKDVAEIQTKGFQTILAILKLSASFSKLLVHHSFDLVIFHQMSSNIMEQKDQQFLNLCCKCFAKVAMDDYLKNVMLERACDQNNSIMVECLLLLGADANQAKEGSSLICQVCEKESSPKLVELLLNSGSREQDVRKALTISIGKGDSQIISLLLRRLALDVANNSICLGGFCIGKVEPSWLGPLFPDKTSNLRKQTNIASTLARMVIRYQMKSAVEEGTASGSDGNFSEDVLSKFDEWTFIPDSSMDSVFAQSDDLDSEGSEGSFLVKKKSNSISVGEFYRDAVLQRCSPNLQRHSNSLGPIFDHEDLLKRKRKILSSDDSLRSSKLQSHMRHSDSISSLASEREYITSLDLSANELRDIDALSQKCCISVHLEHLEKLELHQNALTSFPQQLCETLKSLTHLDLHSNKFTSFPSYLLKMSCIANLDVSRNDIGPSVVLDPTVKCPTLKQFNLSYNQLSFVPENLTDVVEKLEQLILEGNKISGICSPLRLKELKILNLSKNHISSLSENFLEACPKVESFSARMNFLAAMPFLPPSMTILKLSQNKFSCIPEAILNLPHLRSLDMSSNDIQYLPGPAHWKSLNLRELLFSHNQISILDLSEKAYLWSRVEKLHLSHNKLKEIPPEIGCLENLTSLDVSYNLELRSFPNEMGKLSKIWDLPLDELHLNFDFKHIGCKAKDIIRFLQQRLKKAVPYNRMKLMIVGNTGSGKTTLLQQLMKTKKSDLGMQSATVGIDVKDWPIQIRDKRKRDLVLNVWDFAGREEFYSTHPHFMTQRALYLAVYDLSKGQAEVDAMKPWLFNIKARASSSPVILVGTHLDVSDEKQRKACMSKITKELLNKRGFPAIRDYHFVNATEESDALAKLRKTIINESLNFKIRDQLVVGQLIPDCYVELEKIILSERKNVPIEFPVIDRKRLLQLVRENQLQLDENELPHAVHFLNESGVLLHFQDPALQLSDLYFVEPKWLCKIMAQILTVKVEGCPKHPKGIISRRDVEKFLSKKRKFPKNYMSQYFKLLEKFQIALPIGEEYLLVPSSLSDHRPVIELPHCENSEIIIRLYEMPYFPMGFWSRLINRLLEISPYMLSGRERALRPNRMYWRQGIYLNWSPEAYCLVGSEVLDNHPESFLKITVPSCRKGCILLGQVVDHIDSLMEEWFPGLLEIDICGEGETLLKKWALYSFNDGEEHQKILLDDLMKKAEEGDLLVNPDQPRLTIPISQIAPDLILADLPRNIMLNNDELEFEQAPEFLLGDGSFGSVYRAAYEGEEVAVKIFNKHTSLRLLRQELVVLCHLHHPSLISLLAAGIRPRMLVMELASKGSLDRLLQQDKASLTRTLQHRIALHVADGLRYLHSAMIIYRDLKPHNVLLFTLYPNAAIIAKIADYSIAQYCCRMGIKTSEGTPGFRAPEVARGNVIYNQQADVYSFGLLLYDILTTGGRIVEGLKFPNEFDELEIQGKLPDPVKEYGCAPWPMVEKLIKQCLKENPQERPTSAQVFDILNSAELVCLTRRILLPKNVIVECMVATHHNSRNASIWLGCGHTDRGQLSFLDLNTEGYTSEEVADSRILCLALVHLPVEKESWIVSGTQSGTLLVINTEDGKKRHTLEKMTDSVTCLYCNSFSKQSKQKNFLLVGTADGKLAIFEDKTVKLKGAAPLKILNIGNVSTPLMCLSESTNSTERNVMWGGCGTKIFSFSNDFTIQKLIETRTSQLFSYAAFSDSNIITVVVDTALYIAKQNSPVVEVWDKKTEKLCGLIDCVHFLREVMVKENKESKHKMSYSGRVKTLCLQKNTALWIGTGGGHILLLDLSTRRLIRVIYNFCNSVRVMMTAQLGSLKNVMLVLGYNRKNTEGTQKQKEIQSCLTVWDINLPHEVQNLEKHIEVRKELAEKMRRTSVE

| LRRK2 pIC50 | SMILES |
| --- | --- |
| 10.0 | O=C(Nc1cc2cc(C3CCN([C@@H]4COC[C@@H]4O)CC3)c(Cl)cc2cn1)C1CC12CCOC2 (single isomer, unassigned) [Ex-8.1, N-(7-chloro-6-(1-((3R,4R or 3S,4S)-4-hydroxytetrahydrofuran-3-yl)piperidin-4-yl)isoquinolin-3-yl)-5-oxaspiro[2.4]heptane-1-carboxamide] |

Same assay, conditions: read-out: LRRK2 pIC50 (converted)

| IC50 [nM] | SMILES |
| --- | --- |
| 46.8 | COC1CCC(C(=O)Nc2cc3cc(C4CCN(C5(C)COCC5O)CC4)c(Cl)cc3cn2)CC1 (single isomer, unassigned) [Ex-10.2, 1,4-trans, (3R,4R)- or 1,4-trans, (3S,4S)- or 1,4-cis, (3R,4R)- or 1,4-cis, (3S,4S)-N-(7-chloro-6-(1-(4-hydroxy-3-methyltetrahydrofuran-3-yl)piperidin-4-yl)isoquinolin-3-yl)-4-methoxycyclohexane-1-carboxamide] |
| 0.537 | CC1(N2CCC(c3cc4cc(NC(=O)C5CC56CCOC6)ncc4cc3Cl)CC2)COCC1F (single isomer, unassigned) [Ex-6.5, (R or S)-N-(7-chloro-6-(1-((3R,4R or 3S,4S)-4-fluoro-3-methyltetrahydrofuran-3-yl)piperidin-4-yl)isoquinolin-3-yl)-5-oxaspiro [2.4] heptane-1-carboxamide] |
| 2.75 | O=C(Nc1cc2cc(C3CCOCC3)c(Cl)cc2cn1)C1CC12CCOCC2 (centres unmarked) [Ex-7.10, N-(7-chloro-6-(tetrahydro-2H-pyran-4-yl)isoquinolin-3-yl)-6-oxaspiro[2.5]octane-1-carboxamide] |
| 19.1 | O=C(Nc1cc2cc(C3CCN(C4COC4)CC3)c(Cl)cc2cn1)C1CC12CCOCC2 (single isomer, unassigned) [Ex-9.8, N-(7-chloro-6-(1-(oxetan-3-yl)piperidin-4-yl)isoquinolin-3-yl)-6-oxaspiro[2.5]octane-1-carboxamide] |
| 2.63 | CC1(C)CC(C(=O)Nc2cc3cc(C4CCN(C5(C)COCC5O)CC4)c(Cl)cc3cn2)CCO1 (centres unmarked) [Ex-2.35] |
| 1.23 | Cc1cc2cnc(NC(=O)C3CC34CCOC4)cc2cc1C1CCN(C2(C)COCC2F)CC1 (single isomer, unassigned) [Ex-15.7, N-(6-(1-(4-fluoro-3-methyltetrahydrofuran-3-yl)piperidin-4-yl)-7-methylisoquinolin-3-yl)-5-oxaspiro[2.4]heptane-1-carboxamide] |
| 0.631 | O=C(Nc1cc2cc(C3CCN(C4COCC4O)CC3)c(Cl)cc2cn1)C1CC12CCOCC2 (single isomer, unassigned) [Ex-4.1, (R or S)-N-(7-chloro-6-(1-((3R,4R or 3R, 4R)-4-hydroxytetrahydrofuran-3-yl)piperidin-4-yl)isoquinolin-3-yl)-6-oxaspiro[2.5]octane-1-carboxamide] |
| 0.1 | O=C(Nc1cc2cc(C3CCN(C4COCC4O)CC3)c(Cl)cc2cn1)C1CC12CCOC2 (single isomer, unassigned) [Ex-8.5, N-(7-chloro-6-(1-(4-hydroxytetrahydrofuran-3-yl)piperidin-4-yl)isoquinolin-3-yl)-5-oxaspiro[2.4]heptane-1-carboxamide] |
| 89.1 | CC1(C)CC(C(=O)Nc2cc3cc(C4CCN(C5(C)COCC5F)CC4)c(Cl)cc3cn2)CCO1 (single isomer, unassigned) [Ex-6.39, N-(7-chloro-6-(1-(4-fluoro-3-methyltetrahydrofuran-3-yl)piperidin-4-yl)isoquinolin-3-yl)-2,2-dimethyltetrahydro-2H-pyran-4-carboxamide] |
| 27.5 | Cn1cc(C(C)(C)C(=O)Nc2cc3cc(C4CCN(C5(C)COCC5F)CC4)c(Cl)cc3cn2)cn1 (single isomer, unassigned) [Ex-6.54, N-(7-chloro-6-(1-(4-fluoro-3-methyltetrahydrofuran-3-yl)piperidin-4-yl)isoquinolin-3-yl)-2-methyl-2-(1-methyl-1H-pyrazol-4-yl)propenamide] |
| 0.813 | Cc1cc2cnc(NC(=O)C3CC3C(F)F)cc2cc1C1CCN(C2(C)COCC2O)CC1 (centres unmarked) [Ex-2.53] |
| 2.82 | CC1(N2CCC(c3cc4cc(NC(=O)C5C6CCOCC65)ncc4cc3Cl)CC2)COCC1F (single isomer, unassigned) [Ex-6.43, N-(7-chloro-6-(1-(4-fluoro-3-methyltetrahydrofuran-3-yl)piperidin-4-yl)isoquinolin-3-yl)-3-oxabicyclo[4.1.0]heptane-7-carboxamide] |
| 0.0813 | CC1(C)CC(C(=O)Nc2cc3cc(C4CCN(C5(C)COCC5F)CC4)c(Cl)cc3cn2)CCO1 (single isomer, unassigned) [Ex-6.36, N-(7-chloro-6-(1-(4-fluoro-3-methyltetrahydrofuran-3-yl)piperidin-4-yl)isoquinolin-3-yl)-2,2-dimethyltetrahydro-2H-pyran-4-carboxamide] |
| 257 | CC1(N2CCC(c3cc4cc(NC(=O)C5CC5c5cc(F)ccn5)ncc4cc3Cl)CC2)COCC1O (single isomer, unassigned) [Ex-4.40, N-(7-chloro-6-(1-(4-hydroxy-3-methyltetrahydrofuran-3-yl)piperidin-4-yl)isoquinolin-3-yl)-2-(4-fluoropyridin-2-yl)cyclopropane-1-carboxamide] |
| 112 | CC(C)(O)C1CC1C(=O)Nc1cc2cc(C3CCN(C4(C)COCC4F)CC3)c(Cl)cc2cn1 (single isomer, unassigned) [Ex-6.27, N-(7-chloro-6-(1-(4-fluoro-3-methyltetrahydrofuran-3-yl)piperidin-4-yl)isoquinolin-3-yl)-2-(2-hydroxypropan-2-yl)cyclopropane-1-carboxamide] |
| 0.0813 | Cc1cc2cnc(NC(=O)C3CC34CC4)cc2cc1C1CCN(C2(C)COCC2O)CC1 (single isomer, unassigned) [Ex-16.13, N-(6-(1-(4-hydroxy-3-methyltetrahydrofuran-3-yl)piperidin-4-yl)-7-methylisoquinolin-3-yl)spiro[2.2]pentane-1-carboxamide] |
| 0.0813 | CC1(N2CCC(c3cc4cc(NC(=O)c5cnn(C6CC6)c5Cl)ncc4cc3Cl)CC2)COCC1O (single isomer, unassigned) [Ex-1.50, 5-chloro-N-(7-chloro-6-(1-((3R,4R or 3S,4S)-4-hydroxy-3-methyltetrahydrofuran-3-yl)piperidin-4-yl)isoquinolin-3-yl)-1-cyclopropyl-1H-pyrazole-4-carboxamide] |
| 0.676 | Cc1cc2cnc(NC(=O)C3C4CCOCC43)cc2cc1C1CCN(C2(C)COCC2O)CC1 (centres unmarked) [Ex-2.52] |

Continued, compound first:

| SMILES | IC50 [nM] |
| --- | --- |
| CCC1C(C(=O)Nc2cc3cc(C4CCC(N5CC(F)C5)CC4)c(Cl)cc3cn2)C1c1cnn(C)c1 (single isomer, unassigned) [Ex-11.7, N-(7-chloro-6-(4-(3-fluoroazetidin-1-yl)cyclohexyl)isoquinolin-3-yl)-2-ethyl-3-(1-methyl-1H-pyrazol-4-yl)cyclopropane-1-carboxamide] | 0.282 |
| COCC(C)c1cc2cc(NC(=O)C3CC3c3ccccn3)ncc2cc1Cl (single isomer, unassigned) [Ex-9.20, N-(7-chloro-6-(1-methoxypropan-2-yl)isoquinolin-3-yl)-2-(pyridin-2-yl)cyclopropane-1-carboxamide] | 29.5 |
| O=C(Nc1cc2cc(C3CCC(N4CC(F)C4)CC3)c(Cl)cc2cn1)C1CC1c1ccccn1 (single isomer, unassigned) [Ex-5.1, (1R,2R or 1S,2S)-N-(7-chloro-6-((cis or trans)-4-(3-fluoroazetidin-1-yl)cyclohexyl)isoquinolin-3-yl)-2-(pyridin-2-yl)cyclopropane-1-carboxamide] | 52.5 |
| COC1CN(C2CCC(c3cc4cc(NC(=O)C5CC56CCOCC6)ncc4cc3Cl)CC2)C1 (single isomer, unassigned) [Ex-11.4, N-(7-chloro-6-(4-(3-methoxyazetidin-1-yl)cyclohexyl)isoquinolin-3-yl)-6-oxaspiro[2.5]octane-1-carboxamide] | 1.7 |
| CC1(C)CC(C(=O)Nc2cc3cc(C4(C#N)CC45CC5)ccc3cn2)CCO1 (centres unmarked) [Ex-2.58] | 11.2 |
| COC1CC(C(=O)Nc2cc3cc(C4(C#N)CC45CC5)ccc3cn2)C1 (single isomer, unassigned) [Ex-1.4, (1R,3R or 1S,3S)-N-(6-((R or S)-1-cyanospiro[2.2]pentan-1-yl)isoquinolin-3-yl)-3-methoxycyclobutane-1-carboxamide] | 3.63 |
| O=C(Nc1cc2cc(C3CCC(N4CC(F)(F)C4)CC3)c(Cl)cc2cn1)C1CC1c1ccccn1 (single isomer, unassigned) [Ex-5.5, N-(7-chloro-6-(4-(3,3-difluoroazetidin-1-yl)cyclohexyl)isoquinolin-3-yl)-2-(pyridin-2-yl)cyclopropane-1-carboxamide] | 0.275 |
| Cc1cc2cnc(NC(=O)C3CC3c3cnn(C)c3)cc2cc1C1CC12CC2 (single isomer, unassigned) [Ex-16.3, 2-(1-methyl-1H-pyrazol-4-yl)-N-(7-methyl-6-(spiro[2.2]pentan-1-yl)isoquinolin-3-yl)cyclopropane-1-carboxamide] | 10.5 |
| Cn1cc(C2CC2C(=O)Nc2cc3cc(C4CCC(N5CC(F)C5)CC4)c(Cl)cc3cn2)cn1 (single isomer, unassigned) [Ex-5.7, N-(7-cchloro-6-(4-(3-fluoroazetidin-1-yl)cyclohexyl)isoquinolin-3-yl)-2-(1-methyl-1H-pyrazol-4-yl)cyclopropane-1-carboxamide] | 1.91 |
| O=C(Nc1cc2cc(C3CCN(C4COC4)CC3)c(Cl)cc2cn1)c1cocn1 [Ex-1.38, N-(7-chloro-6-(1-(oxetan-3-yl)piperidin-4-yl)isoquinolin-3-yl)oxazole-4-carboxamide] | 11.5 |
| CCC(=O)N1CCC(C(=O)Nc2cc3cc(C4(C#N)CC45CC5)ccc3cn2)CC1 (single isomer, unassigned) [Ex-1.32, N-(6-((R or S)-1-cyanospiro[2.2]pentan-1-yl)isoquinolin-3-yl)-1-propionylpiperidine-4-carboxamide] | 2.34 |
| Cn1cc(N2CCC(C(=O)Nc3cc4cc(C5(C#N)CC56CC6)ccc4cn3)C2)cn1 (centres unmarked) [Ex-2.77] | 10.2 |
| CC(CC#N)c1cc2cc(NC(=O)C3CC3c3ccccn3)ncc2cc1Cl (single isomer, unassigned) [Ex-9.21, N-(7-chloro-6-(1-cyanopropan-2-yl)isoquinolin-3-yl)-2-(pyridin-2-yl)cyclopropane-1-carboxamide] | 26.3 |
